According to US10753947B2, “Methods for screening voltage-gated proteins” (D.E. Shaw Research, LLC, priority 2012, dated 2020):
Positions count from the first letter of the chain named. Like-named read-outs stand apart in the source and are kept apart here.

Assays:
Shaker = Shaker (Drosophila melanogaster, UniProt P08510, DUP563-563/L584V/Q583H); settings: Table 5, cited from earlier work
Kv1.2 = Kv1.2 (Homo sapiens, UniProt P16389); settings: cited from earlier work
Kv1.1 = Kv1.1 (Homo sapiens, UniProt Q09470); settings: cited from earlier work
Kv1.3 = Kv1.3 (Homo sapiens, UniProt P22001); settings: cited from earlier work
Kv2.1 = biological target: T1, Kv2.1 (Homo sapiens, UniProt Q14721); settings: Table 5; read-out: IC50, channel Kv2.1; cited from earlier work
T1 sequence (Q14721 1-858): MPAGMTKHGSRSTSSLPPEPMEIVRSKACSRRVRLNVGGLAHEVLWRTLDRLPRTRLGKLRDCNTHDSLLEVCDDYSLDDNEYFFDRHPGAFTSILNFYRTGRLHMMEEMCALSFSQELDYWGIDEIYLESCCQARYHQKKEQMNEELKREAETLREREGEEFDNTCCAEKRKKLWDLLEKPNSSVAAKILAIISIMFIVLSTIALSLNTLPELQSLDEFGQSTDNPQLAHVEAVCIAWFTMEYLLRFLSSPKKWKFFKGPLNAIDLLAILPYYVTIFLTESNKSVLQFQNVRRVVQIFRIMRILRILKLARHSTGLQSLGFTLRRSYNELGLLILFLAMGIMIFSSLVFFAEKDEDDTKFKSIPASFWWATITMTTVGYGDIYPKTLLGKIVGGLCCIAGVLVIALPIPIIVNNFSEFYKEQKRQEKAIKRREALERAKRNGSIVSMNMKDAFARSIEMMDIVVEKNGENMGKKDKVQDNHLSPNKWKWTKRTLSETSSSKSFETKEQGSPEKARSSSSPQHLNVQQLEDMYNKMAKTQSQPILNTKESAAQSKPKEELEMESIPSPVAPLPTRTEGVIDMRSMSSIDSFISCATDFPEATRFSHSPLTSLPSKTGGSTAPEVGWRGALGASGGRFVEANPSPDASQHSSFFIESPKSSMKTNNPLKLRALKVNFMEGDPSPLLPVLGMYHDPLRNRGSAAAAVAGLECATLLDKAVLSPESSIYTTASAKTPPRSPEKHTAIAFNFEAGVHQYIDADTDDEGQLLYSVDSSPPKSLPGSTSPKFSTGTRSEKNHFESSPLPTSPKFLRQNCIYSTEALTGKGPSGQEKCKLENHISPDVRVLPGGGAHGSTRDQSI

[1] = biological target: T2, Kv2.1 T359S K360G A366D S367A I383M Y384T K386V (Homo sapiens, UniProt Q14721, A366D/I383M/K360G/K386V/S367A/T359S/Y384T); settings: Table 5; read-out: IC50, channel Kv2.1 T359S K360G A366D S367A I383M Y384T K386V; cited from earlier work
T2 sequence (Q14721 1-858 T359S/K360G/A366D/S367A/I383M/Y384T/K386V): T1 sequence (Q14721 1-858) with T359S, K360G, A366D, S367A, I383M, Y384T, K386V

KCa3.1 = KCa3.1 (Homo sapiens, UniProt O15554); settings: Table 4; cited from earlier work
Kv1.5 = Kv1.5 (Homo sapiens, UniProt P22460); settings: Table 4; cited from earlier work
Kv1.6 = Kv1.6 (Homo sapiens, UniProt P17658); settings: Table 4; read-out: IC50 Others: Kv1.6; cited from earlier work
Kv1.4 = Kv1.4 (Homo sapiens, UniProt P22459); settings: Table 4; read-out: IC50 Others: Kv1.4; cited from earlier work
[2] = test system: Kv2.1 R293S/R294S/R300S (R-1S/R0S/R2S); assay: Omega currents (Iω) of Kv2.1 R-1S/R0S/R2S in Xenopus oocytes, two electrode voltage-clamp; format: cell-based, human
Excerpt: The coding cDNAs of KV2.1 “wild-type” (hereinafter WT) base construct (hKv2.1-m7-c3 is human Kv2.1, residues 1-858, mutated to confer AgTx2 sensitivity and to remove extracellular cysteine residues) was synthesized (Entelchon GmbH) and cloned into the high expression vector pBSTA.
Mutations Kv2.1 R294N (hereinafter R0N), Kv2.1 R300S (hereinafter R2S), Kv2.1 R294C/R300S (hereinafter R0C/R2S), Kv2.1 R293S/R294S (hereinafter R-1S/R0S), Kv2.1 R293S/R294C (hereinafter R-1S/R0C), Kv2.1 R293S/R294S/R300S (hereinafter R-1S/R0S/R2S), Kv2.1 R293S/R294C/R300S (hereinafter R-1S/R0C/R2S) were introduced using the QuikChange® Lightning Site-Directed Mutagenesis Kit (Stratagene) with mutagenic primers according to the manufacturer's instructions. All constructs were checked by restriction site mapping and sequencing.
(§1) Transcripted cRNA was produced using the mMessage mMachine kit (Ambion Inc.). Two to four days past injection of cRNA into stage V-VI Xenopus oocytes (NASCO) potassium currents through the alpha pore (Iα) were recorded with the two electrode voltage-clamp technique making use of a TURBO TEC-05× amplifier (npi electronic GmbH). Currents were filtered at 10 kHz and sampled at 20 kHz. The bath solution contained (in mM): NaCl 96, KCl 2, CaCl2 1, MgCl2 1 and HEPES 5 (pH 7.5). Voltage-recording and current-injecting microelectrodes were filled with 3 M KCl and pulled to have resistances between 0.2 and 1 MΩ (see Stork et al., 2007). The pClamp software package v.10.1 (Molecular Devices, Inc.) was used for data acquisition and analysis.
Recording of alpha currents (Iα): Pulses of 100 ms were applied from ˜60 to +60 mV in 10 mV steps at 1 Hz from a holding potential of ˜80 mV to the Kv2.1 channel constructs to measure alpha currents (Iα). Passive leak currents were subtracted online using a P/4 procedure: pClamp software generates a series of scaled-down replica sweeps of the main stimulus waveform. […] The cell's response to the subsweeps is used to calculate the degree of passive cellular current leak. This is then subtracted from acquired data on the associated input signal. Recording of omega currents (Iω): Pulses of 10 ms were applied from a holding potential of ˜80 to ˜300 mV in 20 mV steps at 0.3 Hz to the Kv2.1 channel constructs. Iω were recorded without leak subtraction.
AgTx2 (Sigma Aldrich) was reconstituted according to manufacturer's instructions with 10 mM Tris, pH 7.5, containing 100 mM sodium chloride, 0.1% bovine serum albumin, and 1 mM EDTA. LaCl3 was from Sigma Aldrich; MTSEA, MTSES and MTSET were from Biotium.
La^3+, AgTx2, MTSEA, MTSES and MTSET and were applied to Xenopus oocytes by means of a fast perfusion technique (ScreeningTool as described by Baburin et al., 2006). Origin software v.7.0 (OriginLab Corp.) was employed for data analysis. Inhibition of inward currents was defined as 1−Iω,drug/Iω,control, where Iω,drug is the current response in the presence of a given concentration of lanthanum (La^3+) and Iω, control is the control current through the omega pore. The concentration-inhibition curve was fitted using the Hill equation: Iω,drug/Iω,control=A+[…] where IC50 is the concentration at which Iω inhibition is half-maximal, C is the applied La^3+ concentration, A is the fraction of Iω current that blocked and nH is the Hill coefficient. Data are given as mean±SE (n=number of experiments).

[3] = biological target: T3, Shaker R1S/W434F (alpha pore closed) (Drosophila melanogaster, UniProt P08510, DUP563-563/L584V/Q583H/R362S/W434F); assay: Omega currents (Iω) of Shaker R1S/W434F in Xenopus oocytes, two electrode voltage-clamp; format: cell-based; settings: 100 μM La3+, steps from -80 mV to -200 mV, 20 ms pulses at 1 Hz
T3 construct: expressed in transfected cells; host or cells: Xenopus oocytes injected with cRNA (vector pBSTA)
Excerpt: (§2) The coding cDNAs of Shaker “wild-type” (hereinafter WT) base construct (Shaker H4, with intact inactivation), Shaker R362S with alpha pore open (hereinafter R1S) and Shaker with the alpha pore closed by mutation W434F (herein after R1S/W434F) were cloned into a high expression vector pBSTA. The C-terminus of all constructs was tagged with eGFP. Transcripted cRNA was produced using the mMessage mMachine kit (Ambion Inc.).
as §1, with “Two” for “Transcripted cRNA was produced using the mMessage mMachine kit (Ambion Inc.). Two”, “(NASCO), omega currents (Iω) and” for “(NASCO) potassium”
(§3) Pulses (20 ms) from +60 to ˜300 mV were applied in 20 mV steps at 1 Hz from a holding potential of either −80 mV (WT, R1S/W434F) or ˜50 mV (R1S) (see FIG. 34B) to measure omega currents (Iω) without leak subtraction. […]

[4] = biological target: T4, Shaker R362S with alpha pore open (R1S) (Drosophila melanogaster, UniProt P08510, DUP563-563/L584V/Q583H/R362S); assay: Omega currents (Iω) of Shaker R1S in Xenopus oocytes, two electrode voltage-clamp; format: cell-based; settings: 30, 100 and 300 μM La3+; test pulses +60 mV to -300 mV, holding -50 mV
T4 construct: expressed in transfected cells; host or cells: Xenopus oocytes injected with cRNA (vector pBSTA)
Excerpt: as §2
as §1, with “Two” for “Transcripted cRNA was produced using the mMessage mMachine kit (Ambion Inc.). Two”, “(NASCO), omega currents (Iω) and” for “(NASCO) potassium”
as §3

[5] = Table 5, read-out: IC50, channel Kv1.2
[6] = Table 5, read-out: IC50, channel Kv1.1
[7] = Table 5, read-out: IC50, channel Kv1.3

Sequence of Kv1.1 (Q09470 whole entry): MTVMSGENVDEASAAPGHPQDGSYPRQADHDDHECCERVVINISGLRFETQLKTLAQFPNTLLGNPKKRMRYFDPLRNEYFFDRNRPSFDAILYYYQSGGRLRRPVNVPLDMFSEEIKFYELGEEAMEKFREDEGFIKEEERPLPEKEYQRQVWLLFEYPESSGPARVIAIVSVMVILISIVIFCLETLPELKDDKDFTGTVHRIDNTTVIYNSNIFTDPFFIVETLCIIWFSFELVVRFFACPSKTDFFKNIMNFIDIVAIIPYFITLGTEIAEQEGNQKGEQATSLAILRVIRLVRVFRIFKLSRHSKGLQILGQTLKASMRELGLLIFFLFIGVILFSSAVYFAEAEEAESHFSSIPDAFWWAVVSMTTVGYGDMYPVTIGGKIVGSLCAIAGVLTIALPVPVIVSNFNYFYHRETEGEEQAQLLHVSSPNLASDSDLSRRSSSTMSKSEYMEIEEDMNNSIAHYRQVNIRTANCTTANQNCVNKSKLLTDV
Sequence of Kv1.3 (P22001 whole entry): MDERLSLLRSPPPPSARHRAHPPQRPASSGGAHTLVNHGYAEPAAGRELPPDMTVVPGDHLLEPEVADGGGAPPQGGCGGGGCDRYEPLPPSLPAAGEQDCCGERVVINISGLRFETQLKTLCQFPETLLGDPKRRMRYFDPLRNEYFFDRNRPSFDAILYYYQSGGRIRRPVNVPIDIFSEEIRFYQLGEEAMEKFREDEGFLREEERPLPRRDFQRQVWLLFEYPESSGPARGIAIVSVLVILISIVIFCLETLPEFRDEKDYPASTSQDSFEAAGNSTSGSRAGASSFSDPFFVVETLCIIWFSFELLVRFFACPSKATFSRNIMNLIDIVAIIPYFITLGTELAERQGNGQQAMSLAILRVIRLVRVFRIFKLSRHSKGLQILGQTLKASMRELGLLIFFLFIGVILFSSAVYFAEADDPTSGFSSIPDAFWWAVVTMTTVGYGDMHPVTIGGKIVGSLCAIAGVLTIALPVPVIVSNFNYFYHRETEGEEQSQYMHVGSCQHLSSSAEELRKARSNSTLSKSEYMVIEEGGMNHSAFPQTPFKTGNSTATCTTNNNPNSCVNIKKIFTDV
Sequence of Kv1.2 (P16389 whole entry): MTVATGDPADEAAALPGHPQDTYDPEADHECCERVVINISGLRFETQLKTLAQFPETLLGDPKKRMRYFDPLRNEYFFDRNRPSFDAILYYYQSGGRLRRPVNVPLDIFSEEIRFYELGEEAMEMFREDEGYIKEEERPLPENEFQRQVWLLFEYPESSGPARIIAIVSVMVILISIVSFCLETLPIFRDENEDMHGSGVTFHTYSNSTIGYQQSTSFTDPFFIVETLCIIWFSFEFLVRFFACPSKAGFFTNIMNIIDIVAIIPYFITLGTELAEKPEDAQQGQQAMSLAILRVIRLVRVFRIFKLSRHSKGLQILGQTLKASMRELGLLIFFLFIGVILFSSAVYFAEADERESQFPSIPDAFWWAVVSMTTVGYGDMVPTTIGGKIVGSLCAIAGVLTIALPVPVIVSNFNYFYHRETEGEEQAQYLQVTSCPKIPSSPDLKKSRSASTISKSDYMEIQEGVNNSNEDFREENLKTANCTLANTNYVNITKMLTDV
T3 sequence (P08510 with tags, fused parts or gaps R362S/W434F/DUP563-563/Q583H/L584V): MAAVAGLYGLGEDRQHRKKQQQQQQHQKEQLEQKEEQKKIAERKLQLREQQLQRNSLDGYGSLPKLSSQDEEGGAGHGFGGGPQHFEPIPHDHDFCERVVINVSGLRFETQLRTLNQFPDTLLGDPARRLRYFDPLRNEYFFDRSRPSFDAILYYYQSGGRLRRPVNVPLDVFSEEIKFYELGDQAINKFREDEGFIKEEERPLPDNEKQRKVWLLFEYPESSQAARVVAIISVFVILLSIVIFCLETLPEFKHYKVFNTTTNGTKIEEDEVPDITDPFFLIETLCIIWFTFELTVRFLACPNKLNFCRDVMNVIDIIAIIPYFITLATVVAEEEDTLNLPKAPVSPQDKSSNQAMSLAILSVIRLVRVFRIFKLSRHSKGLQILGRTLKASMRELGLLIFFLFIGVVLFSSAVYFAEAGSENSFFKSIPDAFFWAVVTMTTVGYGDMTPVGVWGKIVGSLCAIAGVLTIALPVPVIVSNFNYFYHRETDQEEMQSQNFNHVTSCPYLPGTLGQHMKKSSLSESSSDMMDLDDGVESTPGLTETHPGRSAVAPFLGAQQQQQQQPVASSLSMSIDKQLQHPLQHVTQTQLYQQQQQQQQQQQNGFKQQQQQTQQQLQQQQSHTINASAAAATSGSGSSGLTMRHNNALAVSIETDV
Sequence of Shaker (P08510 with tags, fused parts or gaps DUP563-563/Q583H/L584V): as the sequence (P08510 with tags, fused parts or gaps R362S/W434F/DUP563-563/Q583H/L584V) above, with S362R, F434W counted along it
Sequence of Kv1.6 (P17658 whole entry): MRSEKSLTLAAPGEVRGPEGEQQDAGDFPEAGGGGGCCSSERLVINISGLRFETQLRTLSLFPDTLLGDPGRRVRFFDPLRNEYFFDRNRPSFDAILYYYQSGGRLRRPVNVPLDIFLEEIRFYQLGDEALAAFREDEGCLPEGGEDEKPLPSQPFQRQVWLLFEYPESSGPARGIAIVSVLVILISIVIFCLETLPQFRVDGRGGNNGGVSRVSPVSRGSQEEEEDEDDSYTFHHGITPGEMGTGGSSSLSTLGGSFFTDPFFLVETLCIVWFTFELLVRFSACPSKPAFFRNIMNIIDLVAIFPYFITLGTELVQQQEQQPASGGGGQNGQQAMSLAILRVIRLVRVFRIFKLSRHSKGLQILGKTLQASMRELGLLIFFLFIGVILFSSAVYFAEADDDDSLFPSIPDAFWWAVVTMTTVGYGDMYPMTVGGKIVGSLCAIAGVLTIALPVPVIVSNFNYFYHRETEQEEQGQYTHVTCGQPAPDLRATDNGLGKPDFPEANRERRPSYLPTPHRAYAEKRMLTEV
T4 sequence (P08510 with tags, fused parts or gaps R362S/DUP563-563/Q583H/L584V): as the sequence (P08510 with tags, fused parts or gaps R362S/W434F/DUP563-563/Q583H/L584V) above, with F434W counted along it
Sequence of Kv1.4 (P22459 whole entry): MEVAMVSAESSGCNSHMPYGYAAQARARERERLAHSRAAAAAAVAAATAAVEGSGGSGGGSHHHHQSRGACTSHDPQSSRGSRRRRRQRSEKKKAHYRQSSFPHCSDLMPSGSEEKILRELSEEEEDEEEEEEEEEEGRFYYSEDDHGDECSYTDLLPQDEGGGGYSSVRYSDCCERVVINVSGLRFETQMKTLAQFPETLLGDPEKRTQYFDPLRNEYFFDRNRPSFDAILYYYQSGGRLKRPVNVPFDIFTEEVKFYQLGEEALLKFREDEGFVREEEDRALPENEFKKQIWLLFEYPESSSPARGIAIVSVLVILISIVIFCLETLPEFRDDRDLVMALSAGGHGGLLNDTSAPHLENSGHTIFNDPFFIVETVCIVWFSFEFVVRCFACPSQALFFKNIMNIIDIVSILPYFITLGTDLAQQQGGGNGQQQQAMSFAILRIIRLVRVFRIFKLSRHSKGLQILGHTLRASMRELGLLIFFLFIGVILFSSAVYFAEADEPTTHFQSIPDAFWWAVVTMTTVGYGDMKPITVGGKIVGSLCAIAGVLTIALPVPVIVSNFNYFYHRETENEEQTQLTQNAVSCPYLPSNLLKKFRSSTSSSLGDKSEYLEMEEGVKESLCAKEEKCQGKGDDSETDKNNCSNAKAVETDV
Sequence of KCa3.1 (O15554 whole entry): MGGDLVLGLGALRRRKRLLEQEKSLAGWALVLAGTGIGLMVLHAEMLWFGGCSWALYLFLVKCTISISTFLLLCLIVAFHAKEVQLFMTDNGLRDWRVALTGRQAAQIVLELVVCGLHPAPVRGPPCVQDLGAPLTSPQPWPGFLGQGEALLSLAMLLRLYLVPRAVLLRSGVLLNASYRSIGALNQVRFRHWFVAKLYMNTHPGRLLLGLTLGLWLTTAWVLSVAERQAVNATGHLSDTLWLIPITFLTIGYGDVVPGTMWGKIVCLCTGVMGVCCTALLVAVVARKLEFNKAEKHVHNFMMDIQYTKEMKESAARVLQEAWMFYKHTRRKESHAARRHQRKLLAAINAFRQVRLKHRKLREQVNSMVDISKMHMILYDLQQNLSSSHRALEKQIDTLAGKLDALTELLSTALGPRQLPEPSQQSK
Sequence of Kv1.5 (P22460 whole entry): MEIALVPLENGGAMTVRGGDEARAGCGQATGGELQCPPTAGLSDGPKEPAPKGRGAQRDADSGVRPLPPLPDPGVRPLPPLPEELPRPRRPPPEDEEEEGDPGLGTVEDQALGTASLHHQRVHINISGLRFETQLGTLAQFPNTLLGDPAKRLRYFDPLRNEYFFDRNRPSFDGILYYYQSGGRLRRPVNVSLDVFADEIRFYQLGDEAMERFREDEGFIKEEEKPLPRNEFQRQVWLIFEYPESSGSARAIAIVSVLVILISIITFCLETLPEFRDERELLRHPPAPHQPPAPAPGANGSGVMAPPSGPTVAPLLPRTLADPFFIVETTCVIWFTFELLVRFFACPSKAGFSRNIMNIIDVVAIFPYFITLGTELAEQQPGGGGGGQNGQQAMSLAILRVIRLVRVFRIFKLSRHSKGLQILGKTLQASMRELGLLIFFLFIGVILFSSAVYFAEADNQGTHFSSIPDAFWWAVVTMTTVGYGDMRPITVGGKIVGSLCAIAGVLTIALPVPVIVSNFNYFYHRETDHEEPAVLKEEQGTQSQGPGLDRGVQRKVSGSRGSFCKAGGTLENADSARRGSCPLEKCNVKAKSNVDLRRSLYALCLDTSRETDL

In the case of hanatoxin [HaTx], the “IC50, channel Shaker” value (Shaker; result in words) is listed as “Weak”, the IC50 (Kv1.2; [5]) is listed as over 2000 nM and the IC50 (Kv1.1; [6]) is listed as over 500 nM. The IC50 (Kv1.3; [7]) was over 500 nM, the IC50 (Kv2.1) was 107 nM and the IC50 [1] was 102 nM.
In the case of `O=c1ccc2c(OCCCCOc3ccccc3)c3ccoc3cc2o1` [PAP-1], the IC50 (KCa3.1) is listed as 10000 nM, the IC50 (Kv1.5) is listed as 45 nM and the IC50 (Kv1.2; Table 4, read-out: IC50 Kv1.2) is listed as 250 nM. The IC50 (Kv1.1; Table 4, read-out: IC50 Kv1.1) was 65 nM, the IC50 (Kv1.6) was 31000 nM and the IC50 (Kv1.4) was 170 nM.
For Charybdotoxin [Charybdotoxin (ChTX)], the IC50 (Shaker; read-out: IC50, channel Shaker) is given as 227 nM, the IC50 (Kv1.2; [5]) is given as 14 nM and the IC50 (Kv1.1; [6]) is given as 1500 nM. The IC50 (Kv1.3; Table 3, read-out: IC50 Values of Kv1.3 ion channel modulating agent) was 0.19 nM, the IC50 (Kv1.3; [7]) was 0.19 nM and the IC50 (Kv2.1) was over 2000 nM.
In the case of `O=c1ccc2c(OCCCCc3ccccc3)c3ccoc3cc2o1` [Psora-4], the IC50 (Kv1.6) is listed as 62 nM.
For `O.O.O.O.O.O.O.[Cl-].[Cl-].[Cl-].[La+3]` [La3+, Lanthanum(III) chloride heptahydrate], the “Block of inward currents at negative potentials (Iω)” value ([2]; 30 μM to 10 mM La3+) was “blocked”, the “Hill coefficient nH” value ([2]; inward currents after 5 ms at -300 mV, Hill fit) was 0.8±0.1 and the “Block of Iω during the first pulse” value [3] was 31.8±3.6%. The “Block of omega currents at steady state” value ([3]; 5 oocytes) was 51.5±5.9% and the “Block of omega current (Iω) of R1S Shaker” value [4] was “blocked in a concentration-dependent manner”.
